Results: patent US10221177B2 (HYDRA BIOSCIENCES, INC., priority 2014, dated 2019)

biological target: human TRPA1 (Homo sapiens (Human), UniProt O75762); test: In vitro inhibition of human TRPA1, whole cell patch configuration; type: cell-based; conditions: current activation 10 μM AITC, tested concentrations 320 pM to 3.2 μM, read-out: hTRPA1 IC50
Description: All currents were recorded in whole-cell configuration using EPC-9 and EPC-10 amplifiers and Patchmaster software (HEKA) or similar. […] The standard bath solution contained 150 mM NaCl, 10 mM HEPES, 10 mM glucose, 4.5 mM KCl, 1 mM EGTA, 3 mM MgCl2, with pH adjusted to 7.4 with NaOH. In some instances, 2 mM CaCl2 was added in place of EGTA and the concentration of MgCl2 was reduced to 1 mM.
Data were collected either by continuous recordings at −60 mV or by applying voltage ramps from a holding potential of −40 mV every 4 s. Continuous recordings were collected at 400 Hz and digitally filtered off-line at 10 Hz for presentation. Voltage ramps were applied from −100 mV or −80 mV to +100 mV or +80 mV over the course of 400 ms, and data were collected at 10 kHz and filtered at 2.9 kHz. Inward and outward currents were analyzed from the ramps at −80 and 80 mV, respectively. Liquid junction potential correction was not used.
Solutions were switched using a gravity-fed continuous focal perfusion system. To achieve rapid temperature changes, two temperature control, and perfusion systems were employed simultaneously. […] Temperatures were confirmed using a thermistor (Warner Instruments, TA-29), with temperatures at the recorded cell estimated to be within +/−2° C. of those reported.
The antagonist effects of compounds of Formula (I) against human TRPA1 (“hTRPA1”) in a whole cell patch configuration were evaluated using the in vitro assay described above.

Sequence of human TRPA1 (O75762 whole entry): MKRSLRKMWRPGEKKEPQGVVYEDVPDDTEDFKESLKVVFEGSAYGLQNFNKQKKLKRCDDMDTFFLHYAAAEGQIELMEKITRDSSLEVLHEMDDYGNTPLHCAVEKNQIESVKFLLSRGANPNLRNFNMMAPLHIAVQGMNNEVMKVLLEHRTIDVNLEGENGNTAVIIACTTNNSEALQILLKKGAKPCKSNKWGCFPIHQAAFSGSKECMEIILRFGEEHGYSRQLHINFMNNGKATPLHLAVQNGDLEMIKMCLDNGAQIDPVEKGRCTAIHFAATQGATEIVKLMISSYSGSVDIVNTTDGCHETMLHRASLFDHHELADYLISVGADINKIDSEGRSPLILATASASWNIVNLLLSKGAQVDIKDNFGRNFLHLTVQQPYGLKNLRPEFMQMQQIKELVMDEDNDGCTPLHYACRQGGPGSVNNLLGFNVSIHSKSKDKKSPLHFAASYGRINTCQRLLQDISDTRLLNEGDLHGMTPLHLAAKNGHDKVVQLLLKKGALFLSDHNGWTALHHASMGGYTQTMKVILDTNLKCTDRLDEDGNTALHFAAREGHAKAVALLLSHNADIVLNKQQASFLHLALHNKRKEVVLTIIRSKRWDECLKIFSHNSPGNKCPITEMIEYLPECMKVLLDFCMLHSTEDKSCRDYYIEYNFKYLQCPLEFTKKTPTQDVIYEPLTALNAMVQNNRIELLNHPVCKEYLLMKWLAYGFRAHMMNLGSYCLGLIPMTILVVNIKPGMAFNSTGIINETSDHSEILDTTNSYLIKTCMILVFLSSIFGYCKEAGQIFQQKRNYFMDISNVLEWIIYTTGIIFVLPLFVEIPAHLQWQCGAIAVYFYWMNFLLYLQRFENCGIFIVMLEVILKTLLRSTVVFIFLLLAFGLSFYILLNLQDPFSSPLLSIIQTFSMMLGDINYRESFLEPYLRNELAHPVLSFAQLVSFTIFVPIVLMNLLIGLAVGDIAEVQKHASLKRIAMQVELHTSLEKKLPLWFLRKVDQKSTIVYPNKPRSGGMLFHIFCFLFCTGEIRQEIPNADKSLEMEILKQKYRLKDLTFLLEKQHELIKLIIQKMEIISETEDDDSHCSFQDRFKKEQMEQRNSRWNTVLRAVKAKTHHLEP

Row | Structure (SMILES) | IC50 [nM]
1 | C[C@@H](C(=O)Nc1cccc(-c2ccc(N3CC4CC4C3)nc2)n1)n1cnc2c1c(=O)n(CC#N)c(=O)n2C (stereo partly drawn) [Compound 35, (2S)—N-(6′-(3-azabicyclo[3.1.0]hexan-3-yl)-2,3′-bipyridin-6-yl)-2-(1-(cyanomethyl)-3-methyl-2,6-dioxo-2,3-dihydro-1H-purin-7(6H)-yl)] | 6
2 | CCN(CC)c1ncc(-c2nc(NC(=O)[C@H](C)n3cnc4c3c(=O)n(Cc3cc(C)on3)c(=O)n4C)cs2)cn1 [Compound 36, (S)—N-(2-(2-(diethylamino)pyrimidin-5-yl)thiazol-4-yl)-2-(3-methyl-1-((5-methylisoxazol-3-yl)methyl)-2,6-dioxo-2,3-dihydro-1H-purin-7(6H)-yl)propanamide] | 2
3 | CCC(=O)Cn1c(=O)c2c(ncn2[C@@H](C)C(=O)Nc2cccc(-c3ccc(N4CC5CC5C4)nc3)n2)n(C)c1=O (stereo partly drawn) [Compound 37, (2S)—N-(6′-(3-azabicyclo[3.1.0]hexan-3-yl)-2,3′-bipyridin-6-yl)-2-(3-methyl-2,6-dioxo-1-(2-oxobutyl)-2,3-dihydro-1H-purin-7(6H)-yl)propanamide] | 3
4 | CCC(=O)Cn1c(=O)c2c(ncn2[C@@H](C)C(=O)Nc2csc(-c3cnc(N(CC)CC)nc3)n2)n(C)c1=O [Compound 38, (S)—N-(2-(2-(diethylamino)pyrimidin-5-yl)thiazol-4-yl)-2-(3-methyl-2,6-dioxo-1-(2-oxobutyl)-2,3-dihydro-1H-purin-7(6H)-yl)propanamide] | 3
5 | C[C@@H](C(=O)Nc1cccc(-c2cnc(N3CCC[C@@H]3C(F)(F)F)nc2)n1)n1cnc2c1c(=O)n(CC#N)c(=O)n2C [Compound 39, (S)-2-(1-(cyanomethyl)-3-methyl-2,6-dioxo-2,3-dihydro-1H-purin-7(6H)-yl)-N-(6-(2-((R)-2-(trifluoromethyl)pyrrolidin-1-yl)pyrimidin-5-yl)pyridin-2-yl)propanamide] | 3
6 | C[C@@H](C(=O)Nc1cncc(-c2cnc(N3CCC[C@@H]3C(F)(F)F)nc2)n1)n1cnc2c1c(=O)n(CC#N)c(=O)n2C [Compound 40, (S)-2-(1-(cyanomethyl)-3-methyl-2,6-dioxo-2,3-dihydro-1H-purin-7(6H)-yl)-N-(6-(2-((R)-2-(trifluoromethyl)pyrrolidin-1-yl)pyrimidin-5-yl)pyrazin-2-yl)propanamide] | 8
7 | CC(=O)Cn1c(=O)c2c(ncn2[C@@H](C)C(=O)Nc2cncc(-c3ccc(N4CC5CC5C4)nc3)n2)n(C)c1=O (stereo partly drawn) [Compound 41, (2S)—N-(6-(6-(3-azabicyclo[3.1.0]hexan-3-yl)pyridin-3-yl)pyrazin-2-yl)-2-(3-methyl-2,6-dioxo-1-(2-oxopropyl)-2,3-dihydro-1H-purin-7(6H)-yl)propanamide] | 12
8 | CCC(=O)Cn1c(=O)c2c(ncn2[C@@H](C)C(=O)Nc2cncc(-c3ccc(N4CC5CC5C4)nc3)n2)n(C)c1=O (stereo partly drawn) [Compound 42, (2S)—N-(6-(6-(3-azabicyclo[3.1.0]hexan-3-yl)pyridin-3-yl)pyrazin-2-yl)-2-(3-methyl-2,6-dioxo-1-(2-oxobutyl)-2,3-dihydro-1H-purin-7(6H)-yl)propanamide] | 4
9 | C[C@@H](C(=O)Nc1cncc(-c2ccc(N3CC4CC4C3)nc2)n1)n1cnc2c1c(=O)n(CC#N)c(=O)n2C (stereo partly drawn) [Compound 43, (2S)—N-(6-(6-(3-azabicyclo[3.1.0]hexan-3-yl)pyridin-3-yl)pyrazin-2-yl)-2-(1-(cyanomethyl)-3-methyl-2,6-dioxo-2,3-dihydro-1H-purin-7(6H)-yl)propanamide] | 8
10 | CC(=O)Cn1c(=O)c2c(ncn2[C@@H](C)C(=O)Nc2cccc(-c3ccc(N4CC5CC5C4)nc3)n2)n(C)c1=O (stereo partly drawn) [Compound 44, (2S)—N-(6′-(3-azabicyclo[3.1.0]hexan-3-yl)-2,3′-bipyridin-6-yl)-2-(3-methyl-2,6-dioxo-1-(2-oxopropyl)-2,3-dihydro-1H-purin-7(6H)-yl)propanamide] | 14
11 | C[C@@H](C(=O)Nc1cccc(-c2cnc(N3CCC[C@H]3C(F)(F)F)nc2)n1)n1cnc2c1c(=O)n(CC#N)c(=O)n2C [Compound 45, (S)-2-(1-(cyanomethyl)-3-methyl-2,6-dioxo-2,3-dihydro-1H-purin-7(6H)-yl)-N-(6-(2-((S)-2-(trifluoromethyl)pyrrolidin-1-yl)pyrimidin-5-yl)pyridin-2-yl)propanamide] | 4
12 | CC(=O)Cn1c(=O)c2c(ncn2[C@@H](C)C(=O)Nc2ccnc(-c3ccc(N4CC5CC5C4)nc3)n2)n(C)c1=O (stereo partly drawn) [Compound 46, (2S)—N-(2-(6-(3-azabicyclo[3.1.0]hexan-3-yl)pyridin-3-yl)pyrimidin-4-yl)-2-(3-methyl-2,6-dioxo-1-(2-oxopropyl)-2,3-dihydro-1H-purin-7(6H)-yl)propanamide] | 22
13 | CCC(=O)Cn1c(=O)c2c(ncn2[C@@H](C)C(=O)Nc2ccnc(-c3ccc(N4CC5CC5C4)nc3)n2)n(C)c1=O (stereo partly drawn) [Compound 47, (2S)—N-(2-(6-(3-azabicyclo[3.1.0]hexan-3-yl)pyridin-3-yl)pyrimidin-4-yl)-2-(3-methyl-2,6-dioxo-1-(2-oxobutyl)-2,3-dihydro-1H-purin-7(6H)-yl)propanamide] | 4
14 | C[C@@H](C(=O)Nc1cncc(-c2cnc(N3CCC[C@H]3C(F)(F)F)nc2)n1)n1cnc2c1c(=O)n(CC#N)c(=O)n2C [Compound 48, (S)-2-(1-(cyanomethyl)-3-methyl-2,6-dioxo-2,3-dihydro-1H-purin-7(6H)-yl)-N-(6-(2-((S)-2-(trifluoromethyl)pyrrolidin-1-yl)pyrimidin-5-yl)pyrazin-2-yl)propanamide] | 7
15 | C[C@@H](C(=O)Nc1ccnc(-c2cnc(N3CCC[C@@H]3C(F)(F)F)nc2)n1)n1cnc2c1c(=O)n(CC#N)c(=O)n2C [Compound 49, (S)-2-(1-(cyanomethyl)-3-methyl-2,6-dioxo-2,3-dihydro-1H-purin-7(6H)-yl)-N-(2′-((R)-2-(trifluoromethyl)pyrrolidin-1-yl)-2,5′-bipyrimidin-4-yl)propanamide] | 7
16 | C[C@@H](C(=O)Nc1csc(-c2cnc(N3CCC[C@@H]3C(F)(F)F)nc2)n1)n1cnc2c1c(=O)n(CC#N)c(=O)n2C [Compound 50] | 4
17 | C[C@@H](C(=O)Nc1cccc(-c2cnc(C(F)(F)F)nc2)n1)n1cnc2c1c(=O)n(CC1COC1)c(=O)n2C [Compound 51, (S)-2-(3-methyl-1-(oxetan-3-ylmethyl)-2,6-dioxo-2,3-dihydro-1H-purin-7(6H)-yl)-N-(6-(2-(trifluoromethyl)pyrimidin-5-yl)pyridin-2-yl)propanamide] | > 3200
18 | CCCC(=O)Cn1c(=O)c2c(ncn2[C@@H](C)C(=O)Nc2cccc(-c3cnc(C(F)(F)F)nc3)n2)n(C)c1=O [Compound 52, (S)-2-(3-methyl-2,6-dioxo-1-(2-oxopentyl)-2,3-dihydro-1H-purin-7(6H)-yl)-N-(6-(2-(trifluoromethyl)pyrimidin-5-yl)pyridin-2-yl)propanamide] | 23
19 | C[C@@H](C(=O)Nc1ccnc(-c2ccc(N3CC4CC4C3)nc2)n1)n1cnc2c1c(=O)n(CC#N)c(=O)n2C (stereo partly drawn) [Compound 53, (2S)—N-(2-(6-(3-azabicyclo[3.1.0]hexan-3-yl)pyridin-3-yl)pyrimidin-4-yl)-2-(1-(cyanomethyl)-3-methyl-2,6-dioxo-2,3-dihydro-1H-purin-7(6H)-yl)propanamide] | 14
